IC50 data for 19 compounds are collected here from ChEMBL document CHEMBL1255536, “Synthesis of aminoquinazoline derivatives and their antiproliferative activities against melanoma cell line” (Bioorg Med Chem Lett, 2010).

The nature of assay [1]: Cytotoxicity against human A375P cells at 100 uM after 24 hrs by MTT assay. The class given is functional, cell-based. (Tetrazolium dyes change colour on reduction, which living cells bring about.)
A short description of assay [2]: Cytotoxicity against human A375P cells after 24 hrs by MTT assay. The class given is functional, cell-based.
The next assay relates to HS27. Description: Cytotoxicity against human HS27 cells after 24 hrs by MTT assay. The class given is cell-based. The note with it: HS27, 24 h.
The target in assay [3] is Serine/threonine-protein kinase B-raf (Homo sapiens, UniProt P15056, V600E). Description: Inhibition of b-Raf V600E mutant.
Sequence of Serine/threonine-protein kinase B-raf (P15056 2-766 V600E limits assumed): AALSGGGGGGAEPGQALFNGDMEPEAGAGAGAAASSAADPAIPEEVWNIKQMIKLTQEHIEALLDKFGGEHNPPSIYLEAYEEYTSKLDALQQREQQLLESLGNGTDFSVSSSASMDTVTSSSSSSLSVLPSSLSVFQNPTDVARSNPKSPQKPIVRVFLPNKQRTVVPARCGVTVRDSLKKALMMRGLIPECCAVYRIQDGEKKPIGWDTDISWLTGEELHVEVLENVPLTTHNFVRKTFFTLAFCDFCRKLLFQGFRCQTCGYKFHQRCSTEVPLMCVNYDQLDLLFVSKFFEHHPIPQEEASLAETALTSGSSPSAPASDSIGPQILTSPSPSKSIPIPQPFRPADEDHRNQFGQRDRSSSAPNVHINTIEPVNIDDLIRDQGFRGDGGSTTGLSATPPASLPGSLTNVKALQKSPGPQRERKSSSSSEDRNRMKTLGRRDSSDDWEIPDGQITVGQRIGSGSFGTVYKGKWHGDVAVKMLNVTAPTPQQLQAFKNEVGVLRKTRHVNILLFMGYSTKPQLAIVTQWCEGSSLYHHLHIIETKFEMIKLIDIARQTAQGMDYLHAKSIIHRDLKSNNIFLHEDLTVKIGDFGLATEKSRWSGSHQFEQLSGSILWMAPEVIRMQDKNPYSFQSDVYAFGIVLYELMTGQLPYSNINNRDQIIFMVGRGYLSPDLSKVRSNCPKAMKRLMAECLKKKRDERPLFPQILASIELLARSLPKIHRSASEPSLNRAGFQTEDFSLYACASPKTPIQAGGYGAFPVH
Assay [4] addresses RAF proto-oncogene serine/threonine-protein kinase (Homo sapiens, UniProt P04049). Description: Inhibition of c-Raf.

Sequence of RAF proto-oncogene serine/threonine-protein kinase (P04049 whole entry): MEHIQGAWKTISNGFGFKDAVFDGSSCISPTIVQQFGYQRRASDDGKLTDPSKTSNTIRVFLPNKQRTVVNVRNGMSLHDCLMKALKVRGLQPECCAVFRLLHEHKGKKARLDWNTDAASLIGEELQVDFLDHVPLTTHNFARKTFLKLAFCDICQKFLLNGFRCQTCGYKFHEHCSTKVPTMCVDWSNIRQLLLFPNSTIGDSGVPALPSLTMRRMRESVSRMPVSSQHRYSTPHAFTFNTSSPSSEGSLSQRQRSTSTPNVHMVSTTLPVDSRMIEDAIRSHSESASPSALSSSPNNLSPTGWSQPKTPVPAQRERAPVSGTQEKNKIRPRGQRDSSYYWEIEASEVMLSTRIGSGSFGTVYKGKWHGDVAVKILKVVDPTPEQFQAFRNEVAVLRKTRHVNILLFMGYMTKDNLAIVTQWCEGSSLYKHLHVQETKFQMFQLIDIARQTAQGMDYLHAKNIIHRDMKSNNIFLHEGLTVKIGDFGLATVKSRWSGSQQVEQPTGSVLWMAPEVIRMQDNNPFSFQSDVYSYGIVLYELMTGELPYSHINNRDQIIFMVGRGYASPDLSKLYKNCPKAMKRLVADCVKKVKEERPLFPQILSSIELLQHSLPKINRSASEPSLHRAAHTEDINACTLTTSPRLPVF

In the case of `CNc1ncnc2c(CNc3cc(NC(=O)c4cc(C)oc4C)ccc3C)cccc12`, the IC50 entry in assay [1] is reported as “Not Active”.

For `CNc1ncnc2c(CNc3cc(NC(=O)c4ccc(-c5ccc(OC)cc5)o4)ccc3C)cccc12`, in assay [1], the IC50 entry is “Not Active”.

Consider `CNc1ncnc2c(CNc3cc(NC(=O)c4ccc(-c5cc(C(F)(F)F)ccc5Cl)o4)ccc3C)cccc12`, for which the midpoint of inhibition in assay [2], the IC50, lay at 14900 nM.

Take `CNc1ncnc2c(CNc3cc(NC(=O)c4ccc(Br)s4)ccc3C)cccc12`: 10500 nM corresponded to half-maximal inhibition in assay [2] (IC50).

Turning to `CNc1ncnc2c(CNc3cc(NC(=O)c4cc(C)on4)ccc3C)cccc12`, in assay [2], inhibition was half-maximal at 1200 nM (IC50).

On to `CNc1ncnc2c(CNc3cc(NC(=O)c4cscn4)ccc3C)cccc12`, for which inhibition in assay [2] was half-maximal at 1900 nM (IC50).

Consider `CNc1ncnc2c(CNc3cc(NC(=O)c4ccc5c(c4)OCCO5)ccc3C)cccc12`, for which the IC50 in assay [2] was determined as 137 nM; with HS27, 1200 nM.

Consider `CNc1ncnc2c(CNc3cc(NC(=O)c4ccc(OC)c5ccc(OC)cc45)ccc3C)cccc12`, for which the IC50 entry in assay [1] is listed as “Not Active”.

Consider `CNc1ncnc2c(CNc3cc(NC(=O)c4cc(=O)c5ccccc5o4)ccc3C)cccc12`, for which the IC50 came to 6 nM in assay [2], 230 nM with HS27, 19500 nM in assay [3] and 765 nM in assay [4].

For `CNc1ncnc2c(CNc3cc(NC(=O)c4cc5ccccc5s4)ccc3C)cccc12`, the IC50 entry in assay [1] is on record as “Not Active”.

Regarding `CNc1ncnc2c(CNc3cc(NC(=O)c4cccc(C(F)(F)F)c4)ccc3C)cccc12`, in assay [2], the IC50 is 433 nM.

As to `CNc1ncnc2c(CNc3cc(NC(=O)c4cc(C(F)(F)F)cc(C(F)(F)F)c4)ccc3C)cccc12`, the IC50 in assay [2] came to 769 nM.

`CNc1ncnc2c(CNc3cc(NC(=O)c4ccc(N)c(C(F)(F)F)c4)ccc3C)cccc12`: the IC50 entry in assay [1] is “Not Active”.

The compound `CNc1ncnc2c(CNc3cc(NC(=O)c4ccc(Cl)c(C(F)(F)F)c4)ccc3C)cccc12` came in with an IC50 in assay [2] of 9700 nM.

For `CNc1ncnc2c(CNc3cc(NC(=O)c4ccc(Cl)c(-n5cnc(C)c5)c4)ccc3C)cccc12`, the IC50 entry in assay [1] is “Not Active”.

With `CNc1ncnc2c(CNc3cc(NC(=O)c4ccncc4Cl)ccc3C)cccc12`, the IC50 entry in assay [1] is on record as “Not Active”.

In assay [2], `CNc1ncnc2c(CNc3cc(NC(=O)c4ccnnc4)ccc3C)cccc12` displayed an IC50 of 61700 nM.

Regarding `CNc1ncnc2c(CNc3cc(NC(=O)c4cnccn4)ccc3C)cccc12`, the IC50 result in assay [1] was “Not Active”.

On to `CNC(=O)c1cc(Oc2ccc(NC(=O)Nc3ccc(Cl)c(C(F)(F)F)c3)cc2)ccn1` [SORAFENIB], for which 5580 nM corresponded to half-maximal inhibition in assay [2] (IC50).

Broadly, the IC50 is the concentration at which inhibition is half-maximal.
